Source: patent publication US20250339443A1, “METHOD FOR TREATING OR PREVENTING CALCIUM RELEASE-ACTIVATED CALCIUM CHANNEL OR DISCOIDIN DOMAIN RECEPTOR 2 RELATED DISORDERS OR CONDITIONS” (LumiSTAR Biotechnology, Inc., priority 2023, published 2025)
Where a name gives a salt, the structure may show the parent alone. One block for each compound: values may come before it.

How the values were obtained:
[1] = tested on: Jurkat T cells; assay: Cytokine secretion in T cells (ELISA); format: cell-based, human; settings: PHA/PMA induction, culture medium
[2] = tested on: THP-1 derived macrophages; assay: Cytokine secretion in macrophages (ELISA); format: cell-based, human; settings: IFN-γ/LPS induction, culture medium
[3] = molecular target: CRAC channel (Homo sapiens, UniProt Q96D31); assay: CRAC channel activity / SOCE by Fura 2-AM cytosolic Ca2+ imaging in HEK293T cells; format: cell-based; parameters: endogenous in cells; host or cells: HEK293T; settings: 10 μM, 1 μM thapsigargin then 2 mM Ca2+
Description: CRAC channel activity was evaluated by applying 1 μM thapsigargin (Thap.) in a calcium-free solution to deplete the endoplasmic reticulum calcium store, followed by the reintroduction of 2 mM Ca^2+ in an external solution. The concentration of cytosolic calcium ions increases as calcium flows through the CRAC channel, leading to the second peak in cytosolic calcium waves. […] Each bar represents the mean value derived from 47 to 103 cells. […] Each bar represents the mean value derived from 83 to 176 cells. […] Further analyses are presented in FIG. 1I and FIG. 1J, where the second peak of each wave and rate of entry were analyzed. Each bar represents the mean value derived from 72 to 108 cells. […] In all the graphs, each bar represents mean±SEM and *, **, and *** denote p-value <0.05, 0.01, and 0.001, respectively.
Cells were then washed and incubated with the same solution in addition to the supplement of Fura 2-AM for another 15 minutes for fully de-esterification. […] 1 μM thapsigargin was added to induce endoplasmic reticulum (ER) calcium store depletion followed by applying 2 mM calcium solution to assess the activation of calcium release-activated calcium (CRAC) channels. Cells were alternately excited at 340 and 380 nm, and images were acquired every 2 seconds. […] All the images were analyzed by using IGOR Pro software. […]

[4] = molecular target: T1, DDR2 (Homo sapiens, UniProt Q16832); assay: DDR2 activation (anti-phosphotyrosine Western blot) in HEK293T cells overexpressing DDR2, collagen-stimulated; format: cell-based; settings: 10 μM pretreatment 30 minutes, then 50 μg/mL type I collagen 12 hours
T1 construct: expressed in transfected cells; host or cells: HEK293T
T1 sequence (Q16832 22-855): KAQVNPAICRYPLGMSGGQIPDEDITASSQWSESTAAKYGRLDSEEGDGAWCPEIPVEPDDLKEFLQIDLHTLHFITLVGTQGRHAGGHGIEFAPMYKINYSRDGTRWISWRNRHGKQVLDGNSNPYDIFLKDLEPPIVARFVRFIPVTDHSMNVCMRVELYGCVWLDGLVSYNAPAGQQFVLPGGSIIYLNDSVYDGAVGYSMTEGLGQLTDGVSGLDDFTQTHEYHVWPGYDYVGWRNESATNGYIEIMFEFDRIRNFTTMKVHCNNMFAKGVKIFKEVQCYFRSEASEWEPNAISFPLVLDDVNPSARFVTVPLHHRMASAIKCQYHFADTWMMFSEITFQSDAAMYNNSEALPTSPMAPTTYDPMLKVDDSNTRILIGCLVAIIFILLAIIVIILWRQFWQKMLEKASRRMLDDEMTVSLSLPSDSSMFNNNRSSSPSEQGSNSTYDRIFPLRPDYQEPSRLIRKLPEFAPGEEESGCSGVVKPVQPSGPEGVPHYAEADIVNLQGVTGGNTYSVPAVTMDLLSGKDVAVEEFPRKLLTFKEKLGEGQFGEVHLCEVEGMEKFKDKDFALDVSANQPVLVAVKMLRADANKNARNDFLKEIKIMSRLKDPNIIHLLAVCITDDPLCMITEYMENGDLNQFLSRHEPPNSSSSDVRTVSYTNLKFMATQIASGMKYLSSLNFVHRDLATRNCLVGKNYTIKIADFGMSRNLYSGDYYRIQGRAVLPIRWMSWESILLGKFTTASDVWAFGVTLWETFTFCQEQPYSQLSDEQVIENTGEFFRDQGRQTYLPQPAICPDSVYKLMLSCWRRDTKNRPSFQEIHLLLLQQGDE
Description: FIG. 1A, FIG. 1B, FIG. 1C, FIG. 1D, FIG. 1E, FIG. 1F, FIG. 1G, FIG. 1H, FIG. 1I, FIG. 1J, FIG. 1K, FIG. 1L, FIG. 1M, and FIG. 1N show WRG-28 and atovaquone (Av) suppress the activation of DDR2 and calcium release-activated calcium (CRAC) channel. FIG. 1A indicates HEK293T cells were transiently overexpressed with DDR2 and then pretreated with different compounds (10 μM), including WRG-28, Av, donepezil hydrochloride (Dh), terazosin hydrochloride (Th), verapamil and flecainide for 30 minutes. Verapamil and flecainide were used as negative control here. After that, cells were treated with 50 μg/mL type I collagen for 12 hours. Cell lysates were harvested and subjected to Western blot analysis with antibodies against phosphotyrosine antibody (clone 4G10), DDR2, and β-actin. […] CRAC channel activity was evaluated by applying 1 μM thapsigargin (Thap.) in a calcium-free solution to deplete the endoplasmic reticulum calcium store, followed by the reintroduction of 2 mM Ca^2+ in an external solution. […] Further analyses are presented in FIG. 1I and FIG. 1J, where the second peak of each wave and rate of entry were analyzed. […] The Orai1 and Stim1 puncta in HEK293T cells overexpressed with CFP-Orai1/Stim1-mCherry were assessed. […]
Cell lysates were harvested in RIPA buffer (150 mM NaCl, 1 mM EGTA, 50 mM Tris pH 7.4, 10% glycerol, 1% Triton X-100, 1% sodium deoxycholate, 0.1% SDS, and protease inhibitor cocktail) and collected from culture dish with cell scrapers. […] The protein expression levels were assessed by specific primary antibodies, including antibodies against phosphotyrosine (clone 4G10; Millipore), DDR2 (R&D), α-SMA (Sigma), Collagen 1a1 (Boster), E-cadherin (BD Biosciences), SGLT2 (Proteintech), NHE1 (Novus) and β-actin (Clone C4, Millipore), followed by incubating with secondary antibodies conjugated with HRP and detected by ECL kit (Thermo Scientific).
To examine the impact of these compounds on DDR2 activation, HEK293T cells overexpressing DDR2 were pretreated with various compounds. […] The activation of DDR2 was evaluated using an anti-phosphotyrosine antibody. […]

[5] = tested on: BLM-induced pulmonary fibrosis; assay: Bleomycin-induced lung fibrosis mouse model; format: in vivo; settings: 14 days, Nintedanib 60 mg/kg/day, WRG-28 5 mg/kg/day, Av 5 mg/kg/day
Text: A Bleomycin (BLM)-induced lung fibrosis mouse model was used, and the timelines of operation and drug delivery are depicted in FIG. 11A. […] The hydroxyproline content, serving as a marker of collagen deposition, was extracted from the right lobe and analyzed; the results are shown in FIG. 11C. FIG. 11D depicts histological analysis derived from the left lobe, quantifying the fibrotic area through staining with Masson's Trichrome and Picrosirius red, respectively.
8-to-10-week-old male WT (C57BL/6) mice received intratracheal instillation of bleomycin (bleocin; Nippon Kayaku) at the dose of 3 mg/kg diluted in PBS or PBS only (sham). To study fibrosis, lung samples were collected on day 21 for further analysis.
Lung function was assessed using the flexi Vent system (Scireq, Montreal, QC, Canada). Mice were tracheostomized and ventilated at a rate of 150 breaths/min, tidal volume of 10 ml/kg, and a positive end-expiratory pressure (PEEP) of 2-3 cmH2O. A deep inflation perturbation was used to estimate the inspiratory capacity (IC). Pressure-Volume loops were generated by constant increasing pressure, followed by regular decreasing pressure. Other lung function parameters like resistance, compliance, and elastance were measured by using SnapShot-150.
Levels of hydroxyproline in lung tissues were measured using the Hydroxyproline Colorimetric Assay kit (BioVision, Milpitas, CA, USA). Briefly, 10 mg of frozen right middle lobes homogenized in 100 μL of hydrochloric acid (HCl, 12 N), and hydrolyzed at 120° C. for 3 h. Then, 10 μL of individual samples were used to quantify the absorbance at 560 nm. Hydroxyproline content was presented in μg per lobe.
Mouse left lungs were fixed overnight in 4% paraformaldehyde (PFA), embedded in paraffin, and sectioned in 5 μm thickness for picrosirius red (Abcam, Cambridge, UK) and Masson's trichrome staining (Sigma Aldrich, MO, USA). Measurement of fibrotic area was quantified using ImageJ software (NIH, http://rsbweb.nih.gov/ij/).
The efficacy of WRG-28 and Av in treating pulmonary fibrosis was examined in vivo using a BLM-induced pulmonary fibrosis mouse model for evaluation. 50 μL of Bleomycin (BLM, 3 mg/kg) or PBS were introduced by intratracheal instillation on day 0 to induce fibrosis or serve as the control group, respectively. This was followed by the administration of various compounds for 14 days (Nintedanib: 60 mg/kg/day, WRG-28:5 mg/kg/day, Av: 5 mg/kg/day). Lung function evaluation was conducted on day 21 (FIG. 11A). Nintedanib, an FDA-approved drug for idiopathic pulmonary fibrosis (IPF) treatment, was used as the positive control. The results of the lung function evaluation are depicted in FIG. 11B. […] The degree of these changes can be reversed through treatment with Nintedanib, WRG-28 or Av. […] Histological analysis was conducted through staining techniques to quantify the fibrotic area.

Sequence of CRAC channel (Q96D31 whole entry): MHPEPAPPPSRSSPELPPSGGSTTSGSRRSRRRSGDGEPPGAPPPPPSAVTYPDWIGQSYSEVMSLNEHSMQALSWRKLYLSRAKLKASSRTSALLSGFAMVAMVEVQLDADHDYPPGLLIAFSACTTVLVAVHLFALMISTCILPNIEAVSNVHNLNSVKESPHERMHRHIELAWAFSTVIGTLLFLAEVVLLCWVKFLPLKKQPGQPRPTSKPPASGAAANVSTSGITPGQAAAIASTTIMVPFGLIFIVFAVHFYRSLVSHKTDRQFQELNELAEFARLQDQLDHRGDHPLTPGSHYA

SMILES: Cc1cccc(F)c1C(=O)Nc1cnc(-c2cc3c(cc2Cl)OC(F)(F)O3)cn1 [CM-4620]
secretion of IL-2 in T cells [1]: significantly reduced
secretion of IL-2 in macrophages [2]: significantly reduced
secretion of IL-6 in macrophages [2]: significantly reduced
secretion of TNF-β in macrophages [2]: significantly reduced

second peak and rate of SOCE [3]: did not show significant effects
activation of DDR2 (phosphotyrosine) [4]: significantly reduced
SMILES: COc1cc2c(cc1OC)C(=O)C(CC1CCN(Cc3ccccc3)CC1)C2 (stereo not shown) [Dh, donepezil hydrochloride]

SMILES: COC(=O)c1ccc2c(c1)NC(=O)/C2=C(\Nc1ccc(N(C)C(=O)CN2CCN(C)CC2)cc1)c1ccccc1 [Nintedanib]
BLM-induced changes in lung function (capacity, compliance, resistance, elastance) ([5]; day 21): reversed
fibrotic area (Masson's trichrome and Picrosirius Red staining) ([5]; left lobe): effectively reduces
hydroxyproline content (degree of fibrosis) ([5]; right lobe): inhibits the progression of fibrosis

activation of DDR2 (phosphotyrosine) [4]: significantly reduced
SMILES: COc1cc2nc(N3CCN(C(=O)C4CCCO4)CC3)nc(N)c2cc1OC (stereo not shown) [Th, terazosin hydrochloride]
